Assay results: patent US8859535B2, “Hydroxy substituted isoquinolinone derivatives” (Novartis AG, priority 2011, dated 2014)

Assays:
Type in all cases: binding
[1] = biological target: T1, human MDM4 protein (amino acids 2-185) (Homo sapiens, UniProt O15151); test: p53-MDM4 TR-FRET assay (p53-MDM4 Assay 1); details: 2.5 nM MDM4-biotinylated, 10 nM Cy5-p53 peptide; read-out: IC50 (μM) of p53-Hdm4 inhibition (TR-FRET) Assay 1
T1 construct: human MDM4 protein (amino acids 2-185); made in house
T1 sequence (O15151 2-185): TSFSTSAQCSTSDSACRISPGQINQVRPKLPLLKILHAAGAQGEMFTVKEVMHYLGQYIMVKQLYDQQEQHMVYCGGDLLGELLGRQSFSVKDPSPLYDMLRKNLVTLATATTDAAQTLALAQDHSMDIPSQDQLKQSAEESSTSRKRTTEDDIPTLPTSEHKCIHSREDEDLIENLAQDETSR
Summary of the method: (§1)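 Peptide displacement read as 665/620 nm TR-FRET ratio (excitation 340 nm) after 15 min room temperature with 10 nM Cy5-p53 aa18-26, following 15 min preincubation of Eu-streptavidin (0.625 nM) with biotinylated MDM4 aa 2-185 (2.5 nM) or MDM2 aa 2-188 (1.25 nM); IC50 curve-fitted. MDM2 Assay 2: MDM2 and Eu-streptavidin each 0.1 nM.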

[2] = biological target: T2, human MDM2 protein (amino acids 2-188) (Homo sapiens, UniProt Q00987); test: p53-MDM2 TR-FRET assay, modified (p53-MDM2 Assay 2); details: 0.1 nM MDM2, 0.1 nM Europium labeled streptavidin; read-out: IC50 (nM) of p53-Hdm2 inhibition (TR-FRET) Assay 2
T2 construct: human MDM2 protein (amino acids 2-188); made in house
Summary of the method: as §1

[3] = biological target: T2, human MDM2 protein (amino acids 2-188); test: p53-MDM2 TR-FRET assay (p53-MDM2 Assay 1); details: 1.25 nM MDM2-biotinylated, 10 nM Cy5-p53 peptide; read-out: IC50 (μM) of p53-Hdm2 inhibition (TR-FRET) Assay 1
Summary of the method: as §1

T2 sequence (Q00987 2-188): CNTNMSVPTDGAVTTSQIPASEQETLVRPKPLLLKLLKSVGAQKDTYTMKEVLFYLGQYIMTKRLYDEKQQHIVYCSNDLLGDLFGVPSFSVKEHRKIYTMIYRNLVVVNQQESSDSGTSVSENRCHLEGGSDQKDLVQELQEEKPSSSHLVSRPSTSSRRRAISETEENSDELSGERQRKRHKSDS

Row | SMILES | IC50 [1] [µM] | IC50 [2] [nM] | IC50 [3] [µM]
1 | COc1cc2c(cc1OC(C)C)[C@H](c1ccc(Cl)cc1)N(c1ccc(C(C)(O)C3CC4CCCC(C3)N4CC(F)(F)F)cc1)C(=O)C2 (stereo partly drawn) [Example 118, (S)-1-(4-Chloro-phenyl)-2-(4-{1-hydroxy-1-[9-(2,2,2-trifluoro-ethyl)-9-aza-bicyclo[3.3.1]non-3-yl]-ethyl}-phenyl)-7-isopropoxy-6-methoxy-1,4-dihydro-2H-isoquinolin-3-one] | 25.1 | 13.7 | 0.0129
2 | COc1cc2c(cc1OC(C)C)[C@H](c1ccc(Cl)cc1)N(c1ccc(C(C)(O)C3CC4CCCC(C3)O4)cc1)C(=O)C2 (stereo partly drawn) [Example 161, (S)-1-(4-Chloro-phenyl)-2-{4-[1-hydroxy-1-(9-oxa-bicyclo[3.3.1]non-3-yl)-ethyl]-phenyl}-7-isopropoxy-6-methoxy-1,4-dihydro-2H-isoquinolin-3-one] | 4.52 | 3.72 | 0.0041

These reach a lower IC50 [1]. Values come first.

Row | IC50 [1] [µM] | IC50 [2] [nM] | IC50 [3] [µM] | SMILES
3 | 2.88 | 1.6 | 0.0028 | COc1cc2c(cc1OC(C)C)[C@H](c1ccc(Cl)cc1)N(c1ccc(C(C)(O)C3CC4CCCC(C3)N4C=O)cc1)C(=O)C2 (stereo partly drawn) [Example 117, 3-(1-{4-[(S)-1-(4-Chloro-phenyl)-7-isopropoxy-6-methoxy-3-oxo-3,4-dihydro-1H-isoquinolin-2-yl]-phenyl}-1-hydroxy-ethyl)-9-aza-bicyclo[3.3.1]nonane-9-carbaldehyde]
4 | 1.96 | 1.25 | 0.0015 | COc1cc2c(cc1OC(C)C)[C@H](c1ccc(Cl)cc1)N(c1ccc([C@@](C)(O)C3CCS(=O)(=O)CC3)cc1)C(=O)C2 [Example 168, (S)-1-(4-Chloro-phenyl)-2-{4-[(S)-1-(1,1-dioxo-hexahydro-1-thiopyran-4-yl)-1-hydroxy-ethyl]-phenyl}-7-isopropoxy-6-methoxy-1,4-dihydro-2H-isoquinolin-3-one]
5 | 1.17 | 0.961 | 0.0009 | COc1cc2c(cc1OC(C)C)[C@H](c1ccc(Cl)cc1)N(c1ccc([C@@](C)(O)C3CC4CCC(C3)S4(=O)=O)cc1)C(=O)C2 (stereo partly drawn) [Example 174, (S)-1-(4-Chloro-phenyl)-2-{4-[(S)-1-(8,8-dioxo-8-thia-bicyclo[3.2.1]oct-3-yl)-1-hydroxy-ethyl]-phenyl}-7-isopropoxy-6-methoxy-1,4-dihydro-2H-isoquinolin-3-one]
